In ChEMBL document CHEMBL1201862, “PubChem BioAssay data set” (2004):
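Tested at 5 concentrations; 48 h exposure; 96-well plates; endpoints linearly interpolated, else capped at highest concentration. At the GI50, growth is halved.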 Calls of active or inactive are those of the source. Rule as the data show it: active = GI50 up to about 1.1 µM and inactive = higher.

Tests used:
Test in all cases: NCI tumour cell line growth inhibition, 48 h
A549 = test system: A549
UACC-62 = test system: UACC-62
SW-620 = test system: SW-620
A498 = test system: A498
UACC-257 = test system: UACC-257
LOX IMVI = test system: LOX IMVI
OVCAR-8 = test system: OVCAR-8
786-0 = test system: 786-0
CCRF-CEM = test system: CCRF-CEM
T47D = test system: T47D
SNB-19 = test system: SNB-19
NCI-H226 = test system: NCI-H226
HOP-62 = test system: HOP-62
PC-3 = test system: PC-3
NCI/ADR-RES = test system: NCI/ADR-RES
SK-MEL-5 = test system: SK-MEL-5
NCI-H23 = test system: NCI-H23
ACHN = test system: ACHN
MOLT-4 = test system: MOLT-4
SK-OV-3 = test system: SK-OV-3

Measured: GI50

C[C@H](CC[C@@H](O)C(C)(C)O)[C@H]1CC[C@@]2(C)[C@@H]3CC=C4[C@@H](CC[C@H](OC5OC(CO)C(O)C(O)C5O)C4(C)C)[C@]3(C)C(=O)C[C@]12C (stereo not given in full)
inactive: A549 37.2 µM | UACC-62 58.1 µM | SW-620 4.03 µM | A498 > 100 µM | UACC-257 33.7 µM | LOX IMVI 39 µM | OVCAR-8 > 100 µM | 786-0 26.6 µM | CCRF-CEM 14.6 µM | T47D 97.9 µM | SNB-19 62.5 µM | NCI-H226 > 100 µM | HOP-62 36.8 µM | PC-3 75 µM | NCI/ADR-RES > 100 µM | SK-MEL-5 39.5 µM | NCI-H23 > 100 µM | ACHN 32.7 µM | MOLT-4 21.1 µM | SK-OV-3 31 µM
